This note sets out measurements from patent US8822462B2, “Subunit selective NMDA receptor potentiators for the treatment of neurological conditions” (Emory University, priority 2009, dated 2014).

The target in one test is T1, NR1/NR2A (Homo sapiens, UniProt Q12879).
T1 construct: expressed in transfected cells; host or cells: Xenopus laevis oocytes
Briefly: Two electrode voltage clamp, Xenopus laevis oocytes expressing NR1/NR2A. The test is classed as cell-based. To be noted: at 100 μM; read-out: 2A percent effect at the maximum tested concentration. How it is done:
(§1) In the table above, potency is expressed as fitted EC50 value to average composite concentration-effect data constructed from current responses recorded under two electrode voltage clamp from Xenopus laevis oocytes expressing either NR1/NR2A, B, C, or D, GluR1, or GluR6. No effect means less than 20% change in response amplitude at 30 μM of drug.
(In general: In two-electrode clamp one electrode senses voltage and the other passes current.)

In the next test the target is T2, NR1/NR2B (Homo sapiens, UniProt Q05586+Q13224).
T2 construct: expressed in transfected cells; host or cells: Xenopus laevis oocytes
Briefly: Two electrode voltage clamp, Xenopus laevis oocytes expressing NR1/NR2B. The test is classed as cell-based. To be noted: for activity at 100 µM: read-out: 2B percent effect at the maximum tested concentration; for IC50: fitted to composite concentration-effect data, Max 0 = inhibition, read-out: 2B IC50. How it is done:
as §1

The target of a further test is T3, NR1/NR2C (Homo sapiens, UniProt Q05586+Q14957).
T3 construct: expressed in transfected cells; host or cells: Xenopus laevis oocytes
Briefly: Two electrode voltage clamp, Xenopus laevis oocytes expressing NR1/NR2C. The test is classed as cell-based. As to conditions: for activity at 100 µM: read-out: 2C percent effect at the maximum tested concentration; for IC50: fitted to composite concentration-effect data, read-out: 2C IC50; for Emax: maximal effect of fit, read-out: 2C Max.
Source text: Values are mean+SEM (n=14-20). […] C is the closed level; broken line is the open level.
The Hill slope at both receptors for all analogues was greater than 1, consistent with a cooperative effect of binding at two sites.
as §1

The next test addresses NR1/NR2D (Homo sapiens, UniProt O15399+Q05586). Briefly: Two electrode voltage clamp, Xenopus laevis oocytes expressing NR1/NR2D. As to conditions: for activity at 100 µM: read-out: 2D percent effect at the maximum tested concentration, at 100 μM; for Emax: read-out: 2D Max.

NR1/NR2D, sequence (O15399 28-1336, species assumed, other chains not shown): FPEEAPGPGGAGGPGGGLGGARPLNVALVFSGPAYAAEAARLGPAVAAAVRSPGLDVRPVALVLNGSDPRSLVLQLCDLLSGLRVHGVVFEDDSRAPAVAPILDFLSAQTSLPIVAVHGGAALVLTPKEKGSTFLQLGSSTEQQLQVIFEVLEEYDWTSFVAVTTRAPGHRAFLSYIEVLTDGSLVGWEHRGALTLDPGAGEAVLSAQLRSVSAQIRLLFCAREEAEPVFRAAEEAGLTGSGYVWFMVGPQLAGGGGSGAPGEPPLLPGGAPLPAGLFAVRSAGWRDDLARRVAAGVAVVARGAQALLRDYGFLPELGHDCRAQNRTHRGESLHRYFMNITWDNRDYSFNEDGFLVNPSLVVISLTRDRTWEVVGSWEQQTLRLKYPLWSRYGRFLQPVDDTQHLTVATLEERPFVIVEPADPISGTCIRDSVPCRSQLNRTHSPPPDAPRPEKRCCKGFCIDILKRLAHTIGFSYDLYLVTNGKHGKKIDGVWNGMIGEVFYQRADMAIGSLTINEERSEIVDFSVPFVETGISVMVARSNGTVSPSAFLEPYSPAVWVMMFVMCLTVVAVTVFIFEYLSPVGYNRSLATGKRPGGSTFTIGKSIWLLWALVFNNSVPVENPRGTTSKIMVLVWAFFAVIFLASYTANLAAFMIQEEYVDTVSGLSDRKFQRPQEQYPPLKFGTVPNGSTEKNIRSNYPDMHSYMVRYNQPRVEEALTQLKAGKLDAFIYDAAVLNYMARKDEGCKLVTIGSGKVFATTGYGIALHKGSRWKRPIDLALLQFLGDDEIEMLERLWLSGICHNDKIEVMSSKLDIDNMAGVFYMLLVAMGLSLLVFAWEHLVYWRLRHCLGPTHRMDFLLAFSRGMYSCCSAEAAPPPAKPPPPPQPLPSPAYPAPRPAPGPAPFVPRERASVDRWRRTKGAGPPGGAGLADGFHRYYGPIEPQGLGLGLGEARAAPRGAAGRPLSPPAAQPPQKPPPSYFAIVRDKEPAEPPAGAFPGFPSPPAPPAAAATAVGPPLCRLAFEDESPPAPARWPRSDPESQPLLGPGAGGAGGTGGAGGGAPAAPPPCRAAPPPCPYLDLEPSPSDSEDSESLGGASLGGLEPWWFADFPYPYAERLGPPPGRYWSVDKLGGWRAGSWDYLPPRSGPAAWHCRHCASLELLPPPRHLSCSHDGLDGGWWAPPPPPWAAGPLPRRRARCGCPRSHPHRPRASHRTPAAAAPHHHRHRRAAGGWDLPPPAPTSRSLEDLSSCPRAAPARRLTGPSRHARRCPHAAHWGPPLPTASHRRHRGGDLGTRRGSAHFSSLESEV
T2 sequence (Q13224 27-1484, species assumed, other chains not shown): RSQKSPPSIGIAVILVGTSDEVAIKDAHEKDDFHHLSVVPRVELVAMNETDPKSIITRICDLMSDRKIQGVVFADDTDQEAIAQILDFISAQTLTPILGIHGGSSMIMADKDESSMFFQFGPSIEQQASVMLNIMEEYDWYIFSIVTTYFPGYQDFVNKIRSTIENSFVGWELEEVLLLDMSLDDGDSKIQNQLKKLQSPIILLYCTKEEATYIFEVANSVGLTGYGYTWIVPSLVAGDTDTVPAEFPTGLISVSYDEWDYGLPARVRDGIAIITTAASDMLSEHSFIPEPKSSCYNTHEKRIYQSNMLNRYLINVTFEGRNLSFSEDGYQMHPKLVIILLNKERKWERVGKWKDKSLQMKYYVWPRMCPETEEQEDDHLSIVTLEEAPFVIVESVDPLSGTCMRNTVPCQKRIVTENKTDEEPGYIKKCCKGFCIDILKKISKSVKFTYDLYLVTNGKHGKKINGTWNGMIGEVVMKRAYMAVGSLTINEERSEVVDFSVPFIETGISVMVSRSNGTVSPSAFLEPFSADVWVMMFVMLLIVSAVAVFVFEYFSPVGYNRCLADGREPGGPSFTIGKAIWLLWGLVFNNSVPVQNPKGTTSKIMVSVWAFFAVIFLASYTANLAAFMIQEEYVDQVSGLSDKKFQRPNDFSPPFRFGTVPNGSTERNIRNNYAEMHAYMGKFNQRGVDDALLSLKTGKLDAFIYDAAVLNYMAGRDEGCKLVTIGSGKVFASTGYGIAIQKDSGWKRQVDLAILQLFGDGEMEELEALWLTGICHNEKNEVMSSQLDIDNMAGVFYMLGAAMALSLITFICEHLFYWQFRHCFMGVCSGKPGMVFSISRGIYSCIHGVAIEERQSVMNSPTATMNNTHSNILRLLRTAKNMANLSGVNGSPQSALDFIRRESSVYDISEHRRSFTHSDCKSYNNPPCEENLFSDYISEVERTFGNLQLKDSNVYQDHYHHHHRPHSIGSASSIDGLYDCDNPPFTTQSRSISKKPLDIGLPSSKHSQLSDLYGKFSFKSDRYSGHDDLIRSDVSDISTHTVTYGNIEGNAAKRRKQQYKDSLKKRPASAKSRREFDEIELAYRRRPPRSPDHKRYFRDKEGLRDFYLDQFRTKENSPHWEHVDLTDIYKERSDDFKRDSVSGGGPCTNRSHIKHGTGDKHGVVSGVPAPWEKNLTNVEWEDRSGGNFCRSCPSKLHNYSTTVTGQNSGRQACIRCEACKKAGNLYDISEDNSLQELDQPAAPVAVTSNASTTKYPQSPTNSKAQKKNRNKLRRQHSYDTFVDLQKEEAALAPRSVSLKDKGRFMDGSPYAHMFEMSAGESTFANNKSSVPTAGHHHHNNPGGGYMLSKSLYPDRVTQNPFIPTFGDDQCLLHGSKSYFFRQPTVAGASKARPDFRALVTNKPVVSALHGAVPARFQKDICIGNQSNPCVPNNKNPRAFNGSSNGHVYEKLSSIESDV
T3 sequence (Q14957 20-1233, species assumed, other chains not shown): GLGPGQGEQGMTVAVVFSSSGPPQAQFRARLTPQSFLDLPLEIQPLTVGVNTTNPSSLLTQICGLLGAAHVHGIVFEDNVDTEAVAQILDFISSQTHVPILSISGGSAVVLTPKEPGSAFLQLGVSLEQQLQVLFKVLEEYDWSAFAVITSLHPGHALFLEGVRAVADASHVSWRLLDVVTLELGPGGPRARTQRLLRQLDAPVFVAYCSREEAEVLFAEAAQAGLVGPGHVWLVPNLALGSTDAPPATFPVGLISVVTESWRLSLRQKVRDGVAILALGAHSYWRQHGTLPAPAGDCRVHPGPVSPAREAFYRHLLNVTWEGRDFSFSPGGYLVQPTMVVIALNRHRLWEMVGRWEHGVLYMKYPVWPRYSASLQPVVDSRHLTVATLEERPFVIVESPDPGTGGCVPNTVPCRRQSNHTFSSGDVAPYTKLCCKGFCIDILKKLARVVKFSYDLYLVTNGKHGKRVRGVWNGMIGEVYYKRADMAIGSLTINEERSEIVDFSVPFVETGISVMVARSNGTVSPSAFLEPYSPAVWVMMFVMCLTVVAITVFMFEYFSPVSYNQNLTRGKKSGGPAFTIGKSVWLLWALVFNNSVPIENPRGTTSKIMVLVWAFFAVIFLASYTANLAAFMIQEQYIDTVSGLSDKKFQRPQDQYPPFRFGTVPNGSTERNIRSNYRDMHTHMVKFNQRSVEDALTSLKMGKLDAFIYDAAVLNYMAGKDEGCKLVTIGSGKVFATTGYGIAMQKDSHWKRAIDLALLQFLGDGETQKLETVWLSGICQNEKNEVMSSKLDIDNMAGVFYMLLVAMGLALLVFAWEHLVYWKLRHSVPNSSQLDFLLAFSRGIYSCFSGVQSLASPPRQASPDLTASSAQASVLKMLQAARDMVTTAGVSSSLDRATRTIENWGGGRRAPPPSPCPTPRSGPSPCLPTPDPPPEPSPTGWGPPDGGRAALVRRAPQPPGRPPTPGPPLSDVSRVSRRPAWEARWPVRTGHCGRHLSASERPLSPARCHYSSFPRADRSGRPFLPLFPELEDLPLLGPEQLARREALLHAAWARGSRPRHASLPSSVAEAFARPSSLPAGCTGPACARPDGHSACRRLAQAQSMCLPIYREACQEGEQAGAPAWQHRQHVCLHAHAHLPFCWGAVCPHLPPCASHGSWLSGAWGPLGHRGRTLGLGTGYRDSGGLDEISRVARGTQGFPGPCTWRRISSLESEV

As to `Cc1ccnc(NC(=O)c2ccc(C(C)(C)C)cc2)c1` [compound 1398], the activity at 100 µM at NR1/NR2A came to 89%; on NR1/NR2B it was 102%; on NR1/NR2C, 87%; on NR1/NR2D it was 76%.
As for `CC(C)(C)c1ccc(C(=O)Nc2sc3c(c2C(=O)O)CCC3)cc1` [compound 1399], the activity at 100 µM at NR1/NR2A was 100%; at NR1/NR2B, 108%. For the same molecule, the IC50 was found to be 77 µM at NR1/NR2C and 26 µM against NR1/NR2D. Also, the values for the Emax on NR1/NR2C and at NR1/NR2D were 301% and 261%, respectively.
As for `CCOC(=O)c1cc(C)sc1NC(=O)c1ccc(C(C)(C)C)cc1` [compound 1400], the activity at 100 µM at NR1/NR2A was 80%; at NR1/NR2B it was 89%; on NR1/NR2C, 96%; at NR1/NR2D it was 86%.
For `Cc1cc(NC(=O)c2ccc(C(C)(C)C)cc2)no1` [compound 1401] the same measures were 105%, 87%, 97% and 86%.
Taken in the same sequence, the figures for `CSC1=NCCN1C(=O)c1ccc2ccccc2c1` [compound 1402] were 104%, 80%, 103% and 93%.
Taken in the same sequence, the figures for `Cc1ccc(CSc2nccn2C(=O)c2ccc(C(C)(C)C)cc2)cc1` [compound 1403] were 88%, 94%, 104% and 86%.
As for `O=C(O)C1=C(NC(=O)c2ccc(Br)cc2)SC2CCCC12` (centres unmarked) [compound 1404], the activity at 100 µM turned out to be 86% at NR1/NR2A, 68% on NR1/NR2B, 99% at NR1/NR2C and 77% at NR1/NR2D.
Turning to `CC(C)(C)c1ccc(C(=O)Nc2scc(-c3ccccc3)c2C(=O)O)cc1` [compound 1406], the activity at 100 µM at NR1/NR2A was 75%. Moreover, the IC50 on NR1/NR2B was 37 µM; on NR1/NR2C it was 45 µM; on NR1/NR2D, 44 µM. Also, the Emax was determined as 341% at NR1/NR2C and 351% at NR1/NR2D.
For `CC(C)(C)c1ccc(C(=O)Nc2sc3c(c2C(=O)O)CCCC3)cc1` [compound 1417], the results for the activity at 100 µM on NR1/NR2A and on NR1/NR2B were 87% and 102%, respectively. Moreover, the IC50 on NR1/NR2C worked out at 20 µM; against NR1/NR2D, 16 µM. Besides, the figures for the Emax on NR1/NR2C and on NR1/NR2D were 202% and 205%, respectively.
Consider `Cc1sc(NC(=O)c2ccc(C(C)(C)C)cc2)c(C(=O)O)c1C` [compound 1418], for which the activity at 100 µM at NR1/NR2A was 99%; at NR1/NR2B, 115%. Moreover, the values for the IC50 on NR1/NR2C and against NR1/NR2D were 33 µM and 35 µM, respectively. The Emax at NR1/NR2C amounted to 187%; at NR1/NR2D, 195%.
On to `O=C(O)C1=C(NC(=O)c2ccc(I)cc2)SC2CCCC12` (centres unmarked) [compound 1419], for which the activity at 100 µM came to 93% at NR1/NR2A, 91% on NR1/NR2B, 97% on NR1/NR2C and 90% on NR1/NR2D.
For `COc1ccc(C(=O)Nc2sc(C)cc2C(=O)O)cc1` [compound 1420] the same measures were 118%, 97%, 94% and 75%.
Regarding `CCc1cc(C(=O)O)c(NC(=O)c2ccc(C(C)(C)C)cc2)s1` [compound 1421], the activity at 100 µM at NR1/NR2A is 106%; at NR1/NR2B it was 100%. Further, the figures for the IC50 on NR1/NR2C and on NR1/NR2D were 41 µM and 35 µM, respectively. The Emax on NR1/NR2C came to 159%; at NR1/NR2D it was 152%.
Turning to `CCOc1ccc(-c2csc(NC(=O)c3ccc(C(C)(C)C)cc3)c2C(=O)O)cc1` [compound 1423], the activity at 100 µM on NR1/NR2A was found to be 121%. In addition, the results for the IC50 on NR1/NR2B, at NR1/NR2C and at NR1/NR2D were 18 µM, 26 µM and 25 µM, respectively. The Emax at NR1/NR2C came out at 323%; on NR1/NR2D, 370%.
Turning to `COc1ccc(-c2csc(NC(=O)c3ccc(C(C)(C)C)cc3)c2C(=O)O)cc1` [compound 1424], the activity at 100 µM on NR1/NR2A stood at 123%. The IC50 at NR1/NR2B turned out to be 19 µM; at NR1/NR2C, 42 µM; against NR1/NR2D, 43 µM. The Emax at NR1/NR2C came out at 434%; at NR1/NR2D, 475%.
`COc1ccc(OCC2c3cc(OC)c(OC)cc3CCN2C(=O)c2cccc(C)c2)cc1` (centres unmarked) [compound 1425]: the values for the activity at 100 µM at NR1/NR2A and on NR1/NR2B were 74% and 94%, respectively. Moreover, the half-inhibitory concentration (IC50) on NR1/NR2C and against NR1/NR2D was 5 µM throughout. Also, the Emax at NR1/NR2C was 208%; on NR1/NR2D, 172%.
In the case of `COc1ccc(OCC2c3cc(OC)c(OC)cc3CCN2C(=O)c2cccc(C(F)(F)F)c2)cc1` (centres unmarked) [compound 1426], the activity at 100 µM turned out to be 88% at NR1/NR2A and 86% at NR1/NR2B. Moreover, the IC50 at NR1/NR2C and against NR1/NR2D was 2 µM in each case. Also, the Emax was determined as 171% at NR1/NR2C and 204% at NR1/NR2D.
Regarding `Cc1csc(C(=O)O)c1NC(=O)c1ccc(C(C)(C)C)cc1` [compound 1428], the activity at 100 µM at NR1/NR2A turned out to be 105%; at NR1/NR2B it was 70%; on NR1/NR2C, 80%; at NR1/NR2D it was 72%.
Regarding `Cc1sc(NC(=O)c2ccc(C(C)(C)C)cc2)c(C(N)=O)c1C` [compound 1433], the figures for the activity at 100 µM on NR1/NR2A and on NR1/NR2B were 97% and 98%, respectively. Moreover, the half-inhibitory concentration (IC50) is 51 µM on NR1/NR2C and 34 µM against NR1/NR2D. Further, the results for the Emax on NR1/NR2C and on NR1/NR2D were 134% and 150%, respectively.
Consider `Cc1ccc(-c2csc(NC(=O)c3ccc(C(C)(C)C)cc3)c2C(=O)O)cc1` [compound 1434], for which, at NR1/NR2A, the activity at 100 µM worked out at 121%. Further, the IC50 on NR1/NR2B was 11 µM; on NR1/NR2C it was 16 µM; at NR1/NR2D it was 18 µM. For the same molecule, the Emax on NR1/NR2C came to 224%; on NR1/NR2D it was 273%.
For `CC(C)(C)c1ccc(C(=O)Nc2scc(-c3ccc(Br)cc3)c2C(=O)O)cc1` [compound 1435], the activity at 100 µM at NR1/NR2A amounted to 107%; at NR1/NR2B, 98%; at NR1/NR2C it was 103%; on NR1/NR2D, 103%.
Regarding `COc1ccc(NC(O)C2CN(C)C(=O)c3cc(OC)c(OC)cc32)c(OC)c1` (centres unmarked) [compound 1438], the activity at 100 µM at NR1/NR2A came out at 114%; on NR1/NR2B, 85%; on NR1/NR2C, 77%; on NR1/NR2D, 87%.
Turning to `CCN1CC(C(O)Nc2ccc(OC)cc2OC)c2cc(OC)c(OC)cc2C1=O` (centres unmarked) [compound 1439], the activity at 100 µM was 99% at NR1/NR2A, 96% on NR1/NR2B, 84% at NR1/NR2C and 89% at NR1/NR2D.
Turning to `COc1ccc(NC(O)C2CN(C(C)C)C(=O)c3cc(OC)c(OC)cc32)c(OC)c1` (centres unmarked) [compound 1440], the activity at 100 µM on NR1/NR2A was found to be 123%; at NR1/NR2B, 90%; at NR1/NR2C it was 71%; on NR1/NR2D it was 82%.
Regarding `O=C(O)c1c(NC(=O)c2cccc3ccccc23)sc2c1CCC2` [compound 1441], the activity at 100 µM on NR1/NR2A amounted to 81%; at NR1/NR2C it was 78%; at NR1/NR2D, 86%. In addition, the IC50 at NR1/NR2B stood at 43 µM.
For the molecule `COC(=O)c1ccc(OCC2c3cc(OC)c(OC)cc3CCN2C(=O)c2cccc(Cl)c2)cc1` (centres unmarked) [compound 1444], the activity at 100 µM at NR1/NR2A is 91%; on NR1/NR2B, 68%; at NR1/NR2C it was 102%; on NR1/NR2D, 111%.
For `CC(C)(C)c1ccc(C(=O)Nc2ccccc2C(=O)O)cc1` [compound 1479] the same measures were 94%, 97%, 102% and 113%.
With `CC(C)(C)c1ccc(NC(=O)C2CC=CCC2C(=O)O)cc1` (centres unmarked) [compound 1480], the activity at 100 µM on NR1/NR2A is 92%; on NR1/NR2B, 83%; on NR1/NR2C it was 86%; on NR1/NR2D, 85%.
With `CC1CCc2c(sc(NC(=O)c3ccc(C(C)(C)C)cc3)c2C(=O)O)C1` (centres unmarked) [compound 1481], the activity at 100 µM on NR1/NR2A turned out to be 113%; on NR1/NR2B it was 119%; at NR1/NR2C, 97%. In addition, half-maximal inhibition on NR1/NR2D (IC50) required 21 µM. Also, the Emax on NR1/NR2D was determined as 124%.
As to `CC(C)(C)c1ccc(C(=O)NC2=C(C(=O)O)C3CCCCCC3S2)cc1` (centres unmarked) [compound 1482], the activity at 100 µM at NR1/NR2A came out at 97%; at NR1/NR2B, 116%. Besides, the IC50 at NR1/NR2C was found to be 19 µM; against NR1/NR2D it was 16 µM. Moreover, the Emax at NR1/NR2C stood at 127%; at NR1/NR2D, 170%.
`COc1ccc(OCC2c3cc(OC)c(OC)cc3CCN2C(=O)c2ccccn2)cc1` (centres unmarked) [compound 1484]: the activity at 100 µM on NR1/NR2A amounted to 100%; at NR1/NR2B, 80%; at NR1/NR2C, 76%; on NR1/NR2D, 84%.

The term IC50 denotes the concentration needed to halve the response being measured.
